Measured values: patent publication US20220361544A1, “Compositions Containing Brazzein” (The Coca-Cola Company, priority 2019, published 2022)
Read-outs that look alike come from different tables or passages of the source.

What was measured:
[1] = Sensory evaluation of 400 ppm A95 + Brazzein in citric base; assay type: in vivo, human; settings: Brazzein 5 ppm to 20 ppm in 400 ppm of A95
Text: Example 7: Brazzein+Reb A95 (Taste Modifying Composition)
“A95” refers to a steviol glycoside blend comprising primarily reb D and reb M. Methods of obtaining A95 are provided in WO 2017/059414, incorporated herein by reference.

[2] = cited from earlier work
[3] = cited from earlier work; remark: listed apart in the source
[4] = Sensory evaluation of 472 ppm RebM80 + Brazzein in citric base; assay type: in vivo, human; settings: Brazzein 1-15 ppm in 472 ppm of RebM80
Text: Example 6: Brazzein+Reb M (Taste Modifying Composition)

[5] = cited from earlier work; remark: listed apart in the source

## Brazzein: small, sweet-tasting protein from Pentadiplandra brazzeana Baillon; 53-amino acid minor form, SEQ ID NO: 1 (DKCKKVYENYPVSKCQLANQCNYDCKLDKHARSGECFYDEKRNLQCICDYCEY; listed as Pentadiplandra brazzeana)
[1]
  Effect of Brazzein on taste of 400 ppm A95: can improve the mouthfeel, block bitterness and lingering in 400 ppm of A95
[2]; compared with thaumatin
  Taste similarity to sucrose: more similar to sucrose than that of thaumatin
[2]; minor form (des-pGlu1-brazzein) vs major form (pGlu-brazzein)
  Sweetness of minor form relative to major form: nearly twice the sweetness of the major form
[3]; 80° C. for 4.5 h in the pH range of 2.5-8
  Sweet taste after incubation: remains
[3]; 98° C. for 2 h
  Sweet taste after incubation: remains
[4]
  Effect of Brazzein on taste property of 472 ppm RebM80: improves the taste property in 472 ppm of RebM80 such as, sour, less sweet, cover the bitterness and lingering. More mouthfeel, richness and fullbody.
[5]
  Solubility: > 50 g/L
  Water solubility: > 50 mg/mL
